From patent US10973771B2, “Method of making particles for use in a pharmaceutical composition” (VECTURA LIMITED, priority 2000, dated 2021)

Test: Fine particle fraction, capsule fired from twin stage impinger (TSI)
Format: physicochemical
Details: 20mg capsule fired from a twin stage impinger
Method: The 3:1 and the 19:1 blends were then each loaded into a 20mg capsule and fired from a twin stage impinger. A sample of unprocessed salbutamol sulphate was also fired from the TSI to provide a comparison.

- Fine Particle Fraction %: 28%
Substance: salbutamol sulphate
